Laboratory results as given in ChEMBL document CHEMBL1201862, “PubChem BioAssay data set” (2004).
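Method: 48-hour compound exposure of cells in 96-well plates, five concentrations, linear interpolation of endpoints. GI50 marks 50% less growth.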 The source made the active and inactive calls. No stated cut-off is given here; in the data, active = GI50 up to about 1.1 µM and inactive = higher.

Key:
Test in all cases: DTP human tumour cell line panel, 48 h
K562 = system: K562
EKVX = system: EKVX
786-0 = system: 786-0
LOX IMVI = system: LOX IMVI
HL-60 = system: HL-60
SK-MEL-5 = system: SK-MEL-5
OVCAR-3 = system: OVCAR-3
T47D = system: T47D
Malme-3M = system: Malme-3M
NCI-H460 = system: NCI-H460
CAKI-1 = system: CAKI-1
MDA-MB-435 = system: MDA-MB-435
NCI/ADR-RES = system: NCI/ADR-RES
SNB-19 = system: SNB-19
HOP-92 = system: HOP-92
SN12C = system: SN12C
UACC-62 = system: UACC-62
PC-3 = system: PC-3
A549 = system: A549
DU-145 = system: DU-145
Hs-578T = system: Hs-578T
OVCAR-5 = system: OVCAR-5
MOLT-4 = system: MOLT-4
SW-620 = system: SW-620
COLO 205 = system: COLO 205
UACC-257 = system: UACC-257
NCI-H23 = system: NCI-H23
SNB-75 = system: SNB-75
U-251 = system: U-251
RPMI-8226 = system: RPMI-8226
M14 = system: M14
MCF7 = system: MCF7
SR = system: SR
HOP-62 = system: HOP-62
SK-MEL-28 = system: SK-MEL-28
SF-295 = system: SF-295
HCT-116 = system: HCT-116
MDA-N = system: MDA-N
RXF 393 = system: RXF 393
SK-MEL-2 = system: SK-MEL-2
NCI-H226 = system: NCI-H226
MDA-MB-231 = system: MDA-MB-231
IGROV-1 = system: IGROV-1
CCRF-CEM = system: CCRF-CEM
SK-OV-3 = system: SK-OV-3
BT-549 = system: BT-549
HT-29 = system: HT-29
A498 = system: A498
HCT-15 = system: HCT-15
SF-268 = system: SF-268
SF-539 = system: SF-539
OVCAR-4 = system: OVCAR-4
UO-31 = system: UO-31
HCC 2998 = system: HCC 2998
NCI-H522 = system: NCI-H522
OVCAR-8 = system: OVCAR-8
TK-10 = system: TK-10
KM12 = system: KM12
ACHN = system: ACHN
KM-20L2 = system: KM-20L2

Measured: GI50

CC(=O)OC(C)(C)/N=N/c1ccc(Br)cc1
active: K562 0.0596 µM | HL-60 0.653 µM | SK-MEL-5 0.209 µM | T47D 1.09 µM | NCI-H460 0.946 µM | MDA-MB-435 1.08 µM | UACC-62 0.052 µM | COLO 205 0.52 µM | RPMI-8226 0.942 µM | M14 0.277 µM | MCF7 0.551 µM | SR 0.475 µM | SF-295 0.153 µM | HCT-116 0.851 µM | MDA-N 0.178 µM | HT-29 0.975 µM | SF-539 0.841 µM | UO-31 0.425 µM
inactive: EKVX 9.38 µM | 786-0 22.9 µM | LOX IMVI 3.09 µM | OVCAR-3 13.6 µM | Malme-3M > 43.1 µM | CAKI-1 16.7 µM | NCI/ADR-RES 14.4 µM | SNB-19 > 68.2 µM | HOP-92 23.7 µM | SN12C 32.7 µM | PC-3 24.3 µM | A549 6.04 µM | DU-145 54.2 µM | Hs-578T > 53.2 µM | OVCAR-5 1.66 µM | MOLT-4 3.56 µM | SW-620 48.2 µM | UACC-257 5.45 µM | NCI-H23 25.8 µM | SNB-75 > 53.5 µM | U-251 25.1 µM | HOP-62 34.3 µM | SK-MEL-28 3.01 µM | RXF 393 20.6 µM | SK-MEL-2 > 85.7 µM | NCI-H226 2.96 µM | MDA-MB-231 > 76.2 µM | IGROV-1 18.7 µM | CCRF-CEM 10.2 µM | SK-OV-3 > 33.9 µM | BT-549 97.7 µM | A498 > 87.5 µM | SF-268 17.4 µM | OVCAR-4 9.18 µM | HCC 2998 16.6 µM | NCI-H522 9.4 µM | OVCAR-8 17.5 µM | TK-10 23.7 µM | KM12 5.79 µM | ACHN 1.33 µM
0.977 µM: HCT-15

COc1ccc(OC)c(C(=O)/C=C/c2cc(O)c(O)cc2F)c1
0.076 µM: HCT-15
active: K562 0.356 µM | LOX IMVI 0.69 µM | HL-60 0.0361 µM | SK-MEL-5 0.558 µM | OVCAR-3 0.18 µM | MDA-MB-435 0.219 µM | NCI/ADR-RES 0.412 µM | SNB-19 0.619 µM | SN12C 0.417 µM | UACC-62 0.701 µM | DU-145 0.817 µM | Hs-578T 0.424 µM | MOLT-4 0.321 µM | SW-620 0.845 µM | NCI-H23 0.535 µM | SNB-75 0.442 µM | U-251 0.486 µM | RPMI-8226 0.678 µM | M14 0.638 µM | MCF7 0.29 µM | SR 0.227 µM | HOP-62 1.05 µM | HCT-116 0.47 µM | MDA-N 0.181 µM | SK-MEL-2 1.02 µM | CCRF-CEM 0.41 µM | BT-549 0.843 µM | SF-268 0.643 µM | SF-539 0.258 µM | HCC 2998 0.538 µM | NCI-H522 0.272 µM | KM12 0.474 µM
inactive: EKVX 8.04 µM | 786-0 2.28 µM | T47D 5.85 µM | Malme-3M 2.47 µM | NCI-H460 2.14 µM | CAKI-1 4.71 µM | HOP-92 10.1 µM | PC-3 4.18 µM | A549 9.57 µM | OVCAR-5 13 µM | COLO 205 15.5 µM | UACC-257 3.1 µM | SK-MEL-28 1.85 µM | SF-295 1.33 µM | RXF 393 1.37 µM | NCI-H226 5.24 µM | MDA-MB-231 1.41 µM | IGROV-1 1.61 µM | SK-OV-3 3.35 µM | HT-29 7.14 µM | A498 3.17 µM | OVCAR-4 2.29 µM | UO-31 2.66 µM | OVCAR-8 2.14 µM | TK-10 6.58 µM | ACHN 2.27 µM

CC1(C)CCC[C@@]2(C)C1CC[C@@]1(CO1)[C@@H]2/C=C\C(C=O)CC=O (some centres undefined)
inactive: K562 26.5 µM | EKVX > 100 µM | 786-0 > 75.3 µM | LOX IMVI > 67.1 µM | HL-60 21.6 µM | SK-MEL-5 > 100 µM | OVCAR-3 > 100 µM | T47D 99.3 µM | Malme-3M > 100 µM | NCI-H460 > 100 µM | CAKI-1 > 100 µM | MDA-MB-435 > 100 µM | NCI/ADR-RES > 100 µM | SNB-19 > 100 µM | HOP-92 > 100 µM | SN12C > 68.1 µM | UACC-62 > 100 µM | PC-3 > 70.3 µM | A549 > 100 µM | DU-145 > 100 µM | Hs-578T > 100 µM | OVCAR-5 > 100 µM | MOLT-4 21.5 µM | SW-620 67.1 µM | COLO 205 > 91.8 µM | UACC-257 > 100 µM | NCI-H23 > 100 µM | SNB-75 > 80.5 µM | U-251 > 96.6 µM | RPMI-8226 10.9 µM | M14 > 100 µM | MCF7 > 100 µM | SR 37.6 µM | HOP-62 > 100 µM | SK-MEL-28 > 100 µM | SF-295 > 100 µM | HCT-116 62.2 µM | MDA-N > 87.9 µM | RXF 393 99.8 µM | SK-MEL-2 > 100 µM | NCI-H226 > 100 µM | MDA-MB-231 > 100 µM | IGROV-1 > 100 µM | CCRF-CEM 17.3 µM | SK-OV-3 > 100 µM | BT-549 > 100 µM | HT-29 > 56.6 µM | A498 > 100 µM | SF-268 > 100 µM | SF-539 > 87.3 µM | OVCAR-4 > 100 µM | UO-31 > 94.8 µM | HCC 2998 > 100 µM | NCI-H522 42.4 µM | OVCAR-8 > 100 µM | TK-10 > 100 µM | KM12 > 67.9 µM | ACHN > 100 µM
73.6 µM: HCT-15

Cc1ccc(NC(=O)CC(=O)N2N=C(N(C)c3ccccc3)CC2c2ccccc2)cc1 (centres undefined)
inactive: K562 > 100 µM | EKVX > 100 µM | 786-0 > 100 µM | LOX IMVI > 100 µM | HL-60 > 100 µM | SK-MEL-5 > 100 µM | OVCAR-3 > 100 µM | T47D > 100 µM | Malme-3M > 100 µM | NCI-H460 > 100 µM | CAKI-1 > 100 µM | MDA-MB-435 > 100 µM | NCI/ADR-RES > 100 µM | SNB-19 > 100 µM | HOP-92 > 100 µM | SN12C > 100 µM | UACC-62 > 100 µM | PC-3 > 100 µM | A549 > 100 µM | DU-145 > 100 µM | Hs-578T > 100 µM | OVCAR-5 > 100 µM | MOLT-4 > 100 µM | SW-620 > 100 µM | COLO 205 > 100 µM | UACC-257 > 100 µM | NCI-H23 > 100 µM | SNB-75 25.4 µM | U-251 > 100 µM | RPMI-8226 > 100 µM | M14 > 100 µM | MCF7 > 100 µM | SR > 100 µM | HOP-62 > 100 µM | SK-MEL-28 > 100 µM | SF-295 > 100 µM | HCT-116 > 100 µM | MDA-N > 100 µM | RXF 393 > 100 µM | SK-MEL-2 > 100 µM | NCI-H226 > 100 µM | MDA-MB-231 > 100 µM | IGROV-1 > 100 µM | CCRF-CEM > 100 µM | SK-OV-3 > 100 µM | BT-549 > 100 µM | HT-29 > 100 µM | A498 > 100 µM | SF-268 > 100 µM | SF-539 > 100 µM | OVCAR-4 68.5 µM | UO-31 > 100 µM | HCC 2998 > 100 µM | NCI-H522 > 100 µM | OVCAR-8 58.7 µM | TK-10 > 100 µM | KM12 > 100 µM | ACHN > 100 µM
> 100 µM: HCT-15

O=C1C=C[C@@]23C[C@@H](NC4=C2C2=NCCc5c[nH]c(c52)C4=O)SC3=C1 [1-DEBROMODISCORHABDIN B]
inactive: HL-60 1.67 µM | Malme-3M 1.25 µM | CAKI-1 17.7 µM | MDA-MB-435 1.63 µM | SNB-19 16.3 µM | KM-20L2 3.01 µM | MOLT-4 1.99 µM | COLO 205 1.55 µM | HCT-116 1.75 µM | MDA-N 1.73 µM | NCI-H226 14.6 µM | CCRF-CEM 2.86 µM | SK-OV-3 18.7 µM | HT-29 2.22 µM | UO-31 9.35 µM | NCI-H522 1.69 µM | TK-10 14.6 µM | KM12 6.43 µM
